According to patent US7906620B2, “Tumor associated antigen, peptides thereof, and use of same as anti-tumor vaccines” (Yeda Research and Development Co. Ltd., priority 2002, dated 2011):

Columns and labels:
T2 cells = assay: In vitro priming of human CTL with prostate peptides, cytolytic assay on peptide pulsed T2 cells; format: cell-based; settings: for existence of peripheral CTL precursors in healthy individuals: peripheral blood of healthy individuals; for activation of CTL precursors in PBMC derived from CaP patients and healthy donors: three healthy and two CaP individuals
Experimental: FIGS. 16A-16D are graphs showing in vitro priming of human CTLs. PBMC of leukopheresis samples were isolated and in vitro CTL primed with peptide pulsed autologous DC. PBMC were supplemented with IL-7 and two days later IL-2 was added and renewed every three days. Additional two cycles of re-stimulation were done every 7 days over peptide pulsed monocytes. Seven days after the last stimulation cytolytic assay was performed using peptide pulsed or non-pulsed T2 cells as target. In FIG. 16A, PBMC derived from CaP individual (donor A) were primed and re-stimulated with STEAP-3 pulsed DC/monocytes. Target cells: relevant (STEAP-3) and non-relevant peptide (HIV-derived, PAP-3) pulsed T2 cells. In FIG. 16B, PBMC derived from healthy individual (donor B) were primed and restimulated with PAP-3 pulsed DC/monocytes. Target cells: relevant (PAP-3) and non-relevant peptide (HIV-derived, STEAP-3) pulsed T2 cells. PBMC derived from healthy individual (donor C) were primed and restimulated with either PAP-3 (C-1; FIG. 16C) or STEAP-3 (C-2; FIG. 16D) pulsed DC/monocytes. Relevant (PAP-3 or STEAP-3) peptide pulsed and non-pulsed T2 cells were used as targets.
FIGS. 17A-17C are graphs showing peptide specific CTL induced in human PBMC by PAP-3 (FIG. 17A), STEAP-3 (FIG. 17B), and PSGR-1 (FIG. 17C). PBMC from a healthy donor were stimulated by peptide pulsed DC as described and CTL activity was tested on homologous peptide pulsed T2 target cells (HLA-A2 lymphoma, TAP deficient).
Finally, peripheral blood of two healthy (donors B, C) and one CaP (donor A) individuals were tested for the existence of CTL precursors (FIGS. 16A-16D). Leukopheresis products of the donors were obtained from Barzilai Medical Center (Ashkelon, Israel) according to Declaration of Helsinki Principles. PBMC were isolated by centrifugation on Ficoll-Plaque Plus gradients (Amersham, Sweden). In vitro priming of CTL was done over autologous DC that were prepared from monocytes by IL-4 and GM-CSF treatment and maturated with a IL-1β, IL-6, TNF-α and PGE2 cocktail. DC were pulsed with synthetic peptides and PBMC were supplemented with IL-7. Two days later, IL-2 was added and renewed every three days. Two additional re-stimulations were done every 7 days over peptide pulsed monocytes. Seven days after the third stimulation, lymphocytes were harvested and a cytolytic assay was performed using relevant/non-relevant peptide pulsed or non-pulsed at all T2 cells.
(§1) When human PBMC are stimulated in vitro by PAP-3 and STEAP-3 peptides, the resulting CTL can lyse target cells (T2, EL4/HHD) pulsed with PAP-3, STEAP-3 or PSGR-1 and PSGR-6 peptides. (FIGS. 15 and 16). Here, these findings were expanded and peripheral blood of three healthy and two CaP individuals was tested for the existence of CTL precursors against PAP-3, STEAP-3 and PSGR-1 peptides. Leukopheresis products of the donors were obtained from Barzilai Medical Center (Ashkelon, Israel) according to Declaration of Helsinki Principles. PBMC were isolated by centrifugation on Ficoll-Plaque Plus gradients (Amersham, Sweden). In vitro priming of CTL was done over autologous DC that were prepared from monocytes by IL-4 and GM-CSF treatment and matured with a IL-1β, IL-6, TNF-α and PGE2 cocktail. DC were pulsed with synthetic peptides and PBMC were supplemented with IL-7. Two days later, IL-2 was added and renewed every three days. Two additional re-stimulations were done every 7 days over peptide pulsed monocytes. Seven days after the third stimulation, lymphocytes were harvested and a cytolytic assay was performed using relevant/non-relevant peptide pulsed or non-pulsed T2 cells (FIGS. 17A-17C) and LNCaP (high and low HLA expressors) cells as targets (FIGS. 18A-18E). […] Monitoring of HLA-A2-peptide specific CD8+ cells for PAP-3 and STEAP-3 was also performed by MHC-peptide tetramers (tetramers of recombinant HLA-A2.1-beta2 microglobulin single chain with peptides were prepared in collaboration with Dr Yoram Reiter, Technion, Haifa). […]

LNCaP = assay: Lysis of LNCaP tumor cells by human anti-peptide CTL; format: cell-based; settings: LNCaP high and low HLA expressors as targets
Source text: FIGS. 18A-18E are graphs showing that human anti-peptide CTL from a healthy donor kills LNCaP tumor cells. PBMC from a healthy donor (FIGS. 18A-18C) or a CaP patient (FIGS. 18D-18E) were stimulated with PAP-3 (FIGS. 18A, 18D), STEAP-3 (FIGS. 18B, 18E) or PSGR-1 (FIG. 18C) as described. LNCaP/CRL1740 (LNCaP high in HLA-A2.1 expression), LNCaP/CRL10995 (LNCaP low in HLA-A2.1 expression) and PC3 (negative for HLA-A2.1) served as targets in CTL assays.
as §1

[1] = tested on: HLA-A2-peptide specific CD8+ cells; assay: MHC-peptide tetramer monitoring of HLA-A2-peptide specific CD8+ cells; format: cell-based, human; settings: stimulated PBMC, MHC-peptide tetramers

Sequence	existence of peripheral CTL precursors in healthy individuals (T2 cells)	activation of CTL precursors in PBMC derived from CaP patients and healthy donors (T2 cells)	lysis of tumor cells expressing endogenously processed proteins (LNCaP)	Levels of HLA-A2-peptide specific CD8+ cells [1] [%]	activation of CTL precursors in PBMC derived from CaP individual (T2 cells; donor A)
ILLWQPIPV (listed as Homo sapiens) [PAP-3, PAP start position 135]	2 out of 2	activated CTL precursors	lyse tumor cells	1.7	–
LLLGTIHAL (listed as Homo sapiens) [STEAP-3, STEAP start position 262]	1 out of 2	activated CTL precursors	lyse tumor cells	0.76	activated peripheral CTL precursors
